Source: patent US11478460B2, “Diaryl substituted 6,5-fused ring compounds as C5aR inhibitors” (CHEMOCENTRYX, INC., priority 2017, dated 2022)

target: C5aR (Homo sapiens (Human), UniProt P21730); experiment: Chemotaxis assay using U937 cells (C5aR mediated migration); type: cell-based; settings: read-out: Mig IC50
Method in brief: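 U937 monocytic cells, pretreated overnight with 0.5 mM cyclic AMP, placed at 100,000 cells in the upper well above 5 μm polycarbonate filters. Lower well held 0.03 nM C5a plus compound in HBSS/1% FBS; after 1.5 h at 37° C migrated cells counted directly or by CyQuant, giving IC50.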

Sequence of C5aR (P21730 whole entry): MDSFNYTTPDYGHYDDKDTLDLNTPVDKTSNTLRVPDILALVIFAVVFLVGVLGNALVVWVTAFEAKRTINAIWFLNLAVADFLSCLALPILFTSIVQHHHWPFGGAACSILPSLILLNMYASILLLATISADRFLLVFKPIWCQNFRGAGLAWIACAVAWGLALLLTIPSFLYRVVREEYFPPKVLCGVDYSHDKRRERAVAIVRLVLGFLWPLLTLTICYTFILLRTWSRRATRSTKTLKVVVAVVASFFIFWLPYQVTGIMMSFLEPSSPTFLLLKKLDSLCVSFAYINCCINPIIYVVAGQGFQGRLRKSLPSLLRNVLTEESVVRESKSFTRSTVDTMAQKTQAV

| Structure (SMILES) | IC50 [nM] |
| --- | --- |
| Cc1cccc(OCC(C)C)c1-n1nc2c(c1-c1ccc(NC(=O)N(C)C)cc1)CN(c1ncc(C(F)(F)F)cc1F)CC2 [Example 1.289] | > 500 |
| Cc1cccc(C)c1-n1nc2c(c1-c1cc(F)c(NC(N)=O)cc1F)CN(c1ncc(Cl)cc1C#N)CC2 [Example 1.102] | ≤ 5 |
| Cc1cccc(OCC(C)C)c1-n1nc2c(c1-c1ccc(NC(N)=O)cc1)CN(Cc1c(F)cccc1F)CC2 [Example 1.356] | 5 to 50 |
| Cc1cc(-c2c3c(nn2-c2c(C)cccc2OCC(C)C)CCN(c2ncc(C(F)(F)F)cc2F)C3)cc(C)c1NC(N)=O [Example 1.266] | > 500 |
| Cc1cccc(OCC(C)C)c1-n1nc2c(c1-c1ccc(NC(N)=O)c(F)c1)CN(Cc1nccs1)CC2 [Example 1.234] | 5 to 50 |
| Cc1cccc(OCC(C)C)c1-n1nc2c(c1-c1ccc(NC(N)=O)cc1)CN(c1nc(C(F)(F)F)ccc1C(F)(F)F)CC2 [Example 1.339] | ≤ 5 |
| Cc1cccc(OCC(C)C)c1-n1nc2c(c1-c1ccc(NC(N)=O)c(F)c1)CN(c1ncc(F)cc1F)CC2 [Example 1.249] | ≤ 5 |
| Cc1cccc(OCC(C)C)c1-n1nc2c(c1-c1ccc(NC(N)=O)cc1)CN(Cc1c(Cl)cccc1C(F)(F)F)CC2 [Example 1.362] | ≤ 5 |
| Cc1cccc(OCC(C)C)c1-n1nc2c(c1-c1ccc(NC(N)=O)c(F)c1)CN(c1ncc(Cl)cc1Cl)CC2 [Example 1.252] | ≤ 5 |
| Cc1cccc(OCC(C)C)c1-n1nc2c(c1-c1ccc(NC(N)=O)c(F)c1)CN(C(c1ccccc1)C(F)(F)F)CC2 (stereo not drawn) [Example 1.225] | ≤ 5 |
| CC[C@@H](c1ccccc1)N1CCc2nn(-c3c(C)cccc3C)c(-c3ccc(NC(N)=O)cc3)c2C1 [Example 1.082] | 50 to 500 |
| Cc1cc(N)ccc1-c1c2c(nn1-c1c(C)cccc1C)CCN(c1ccccc1C(C)C)C2 [Example 1.468] | 50 to 500 |
| Cc1cccc(OCC(C)C)c1-n1nc2c(c1-c1ccc(NC(N)=O)cc1)CN(Cc1cccc(C(F)(F)F)c1)CC2 [Example 1.338] | 5 to 50 |
| Cc1cccc(OCC(C)C)c1-n1nc2c(c1-c1ccc(NC(N)=O)cc1)CN(c1cc(C(F)(F)F)ccc1C(F)(F)F)CC2 [Example 1.342] | ≤ 5 |
| Cc1cccc(OC(C)C)c1-n1nc2c(c1-c1ccc(NC(N)=O)cc1)CN(c1ccccc1C(C)C)CC2 [Example 1.460] | ≤ 5 |
| Cc1cccc(CCC(C)C)c1-n1nc2c(c1-c1ccc(NC(N)=O)cc1)CN(CC(C)(C)C)CC2 [Example 1.336] | 5 to 50 |

| Structure (SMILES) | IC50 [nM] |
| --- | --- |
| Cc1ccc(N2CCc3nn(-c4c(C)cccc4OCC(C)C)c(-c4ccc(NC(N)=O)cc4)c3C2)c(C(F)(F)F)c1 [Example 1.321] | ≤ 5 |
| Cc1cccc(OCC(C)C)c1-n1nc2c(c1-c1ccc(NC(N)=O)cc1)CN(c1ncccc1C(F)(F)F)CC2 [Example 1.271] | 5 to 50 |
| Cc1cccc(OCC(C)C)c1-n1nc2c(c1-c1ccc(NC(N)=O)c(F)c1)CN(C(=O)C1CCCC1)CC2 [Example 1.238] | 5 to 50 |
| Cc1cccc(C)c1-n1nc2c(c1-c1ccc(NC(N)=O)cc1)CN(c1ccccc1C(C)C)CC2 [Example 1.478] | 50 to 500 |
| Cc1cccc(OCC(C)C)c1-n1nc2c(c1-c1cc(F)c(NC(N)=O)cc1F)CN(c1ncc(F)cc1Cl)CC2 [Example 1.169] | ≤ 5 |
| CCNc1ccc(-c2c3c(nn2-c2c(C)cccc2OC)CCN(c2ccccc2C(C)C)C3)cc1 [Example 1.476] | 5 to 50 |
| COc1cccc(C)c1-n1nc2c(c1-c1ccc(N)cc1)CN(c1ccccc1C)CC2 [Example 1.491] | 50 to 500 |
| Cc1cccc(OCC(C)C)c1-n1nc2c(c1-c1ccc(NC(N)=O)cc1)CN(Cc1cc(Cl)ccc1C(F)(F)F)CC2 [Example 1.325] | ≤ 5 |
| Cc1cccc(OCC(C)C)c1-n1nc2c(c1-c1ccc(NC(N)=O)cc1)CN(C1CCCCC1)CC2 [Example 1.406] | 50 to 500 |
| Cc1cnc(N2CCc3nn(-c4c(C)cccc4C)c(-c4cc(F)c(NC(N)=O)cc4F)c3C2)c(Cl)c1 [Example 1.115] | ≤ 5 |
| Cc1cccc(OCC(C)C)c1-n1nc2c(c1-c1ccc(NC(N)=O)cc1)CN(c1ncc(C(F)(F)F)cn1)CC2 [Example 1.352] | 5 to 50 |
| Cc1ccc(C(C)(C)O)nc1N1CCc2nn(-c3c(C)cccc3OCC(C)C)c(-c3ccc(NC(N)=O)cc3)c2C1 [Example 1.383] | 50 to 500 |
| CCC(C)(C)N1CCc2nn(-c3c(C)cccc3OCC(C)C)c(-c3ccc(NC(N)=O)c(F)c3)c2C1 [Example 1.230] | 5 to 50 |
| COc1cccc(C)c1-n1nc2c(c1-c1ccc(NC(N)=O)cc1)CN(c1ncccc1C)CC2 [Example 1.408] | 50 to 500 |
| Cc1cccc(OCC(C)C)c1-n1nc2c(c1-c1ccc(NC(N)=O)cc1)CN(C(=O)COC(C)(C)C)CC2 [Example 1.424] | > 500 |

Now from value to compound:

| IC50 [nM] | Structure (SMILES) |
| --- | --- |
| 5 to 50 | CCc1cccc(CC)c1-n1nc2c(c1-c1ccc(NC(N)=O)cc1)CN(Cc1c(C)cccc1C)CC2 [Example 1.290] |
| ≤ 5 | CCc1cccc(CC)c1-n1nc2c(c1-c1cc(F)c(NC(N)=O)cc1F)CN(Cc1ccc(C#N)cc1C(F)(F)F)CC2 [Example 1.048] |
| ≤ 5 | CCc1cccc(CC)c1-n1nc2c(c1-c1cc(F)c(NC(N)=O)cc1F)CN(C(C)(C)c1ccc(F)cc1)CC2 [Example 1.192] |
| ≤ 5 | CCc1cccc(CC)c1-n1nc2c(c1-c1cc(F)c(NC(N)=O)cc1F)CN(C(C)c1ccccc1F)CC2 (stereo not drawn) [Example 1.161] |
| ≤ 5 | CCc1cccc(CC)c1-n1nc2c(c1-c1cc(F)c(NC(N)=O)cc1F)CN(Cc1ccc(Cl)cc1C(F)(F)F)[C@H](C)C2 [Example 1.021] |
| 5 to 50 | CCc1cccc(CC)c1-n1nc2c(c1-c1ccc(NC(N)=O)cc1)CN(Cc1cc(Cl)ccc1Cl)CC2 [Example 1.291] |
| ≤ 5 | Cc1cccc(C)c1-n1nc2c(c1-c1cc(F)c(NC(N)=O)cc1F)CN(c1ccc(Cl)cc1Cl)CC2 [Example 1.119] |
| ≤ 5 | CCc1cccc(CC)c1-n1nc2c(c1-c1cc(F)c(NC(N)=O)cc1F)CN(Cc1cc(Cl)ccc1C(F)(F)F)CC2 [Example 1.069] |
| ≤ 5 | CCc1cccc(CC)c1-n1nc2c(c1-c1cc(F)c(NC(N)=O)cc1F)CN(Cc1ccc(C)cc1C(F)(F)F)CC2 [Example 1.034] |
| ≤ 5 | CCc1cccc(CC)c1-n1nc2c(c1-c1cc(F)c(NC(N)=O)cc1F)CN(Cc1cc(C(F)(F)F)ccc1Cl)CC2 [Example 1.038] |
| ≤ 5 | CCc1cccc(CC)c1-n1nc2c(c1-c1cc(F)c(NC(N)=O)cc1F)CN(Cc1ccc(Cl)cc1C(F)(F)F)CC2 [Example 1.076] |
| ≤ 5 | CCc1cccc(CC)c1-n1nc2c(c1-c1cc(F)c(NC(N)=O)cc1F)CN(C(C)c1ccc(F)cc1)CC2 (stereo not drawn) [Example 1.152] |
| 5 to 50 | CCc1cccc(CC)c1-n1nc2c(c1-c1ccc(NC(N)=O)c(F)c1)CN(C(C)CC(C)C)CC2 (stereo not drawn) [Example 1.215] |
| ≤ 5 | CCc1cccc(CC)c1-n1nc2c(c1-c1cc(F)c(NC(N)=O)cc1F)CN(C(C)c1cccc(F)c1)CC2 (stereo not drawn) [Example 1.181] |
| ≤ 5 | CCc1cccc(CC)c1-n1nc2c(c1-c1cc(F)c(NC(N)=O)cc1F)CN(Cc1ccccc1C(F)(F)F)C(C)(C)C2 [Example 1.027] |
| ≤ 5 | CCc1cccc(CC)c1-n1nc2c(c1-c1cc(F)c(NC(N)=O)cc1F)CN(Cc1cc(Cl)ccc1C(F)(F)F)C(C)(C)C2 [Example 1.031] |
| ≤ 5 | Cc1cc(NC(N)=O)c(F)cc1-c1c2c(nn1-c1c(C)cccc1OCC(C)C)CCN(c1ncc(C(F)(F)F)cc1F)C2 [Example 1.211] |
